Measured values: patent US7183314B1, “Compound for treatment of anxiety and methods of preparation and use thereof” (Naturon Limited, priority 2000, dated 2007)

Legend:
Male ICR mice [1] = test: Locomotor activity test; assay type: in vivo; details: oral; for Locomotor Activity Score: 5 minute period
Experimental: (§1) Male ICR mice weighing 18–23 g were used. They were housed in groups of four or five with free access to food and water and maintained on a 11 hour light: 13 hour dark cycle. All of the experimental groups, except acute lethal activity test (10 mice of either sex) have 16 animals per group.
(§2) For the chronic test, mice received 5 days pretreatment before the test. Flumazenil (Ro15-1788) was administrated intraperitoneally (IP) 15 minutes before testing in an injection volume of 12.5 ml/kg.
A ZIL-2 apparatus (Beijing Institute of Materia Medica) with dimensions 60×60×12 cm was used. It consists of four circular plastic boxes with diameter 25 cm and each has 6 equally distributed infrared photocells. The locomotor activity was counted automatically during a 5 minute period of test. An increase in the number of transitions reflects an increased locomotor activity.

Male ICR mice [2] = test: Holeboard test; assay type: in vivo; details: oral; for Head-dip Number / Head-dip Time: 5 minutes
Experimental: as §1, §2
The holeboard was a wooden box, 60×60×30 cm, with four holes of 3 cm diameter equally spaced in the floor. Mice were placed in the center of the holeboard and the number of head-dips, the time spent head-dipping were counted during 5 minutes (File, S. E., and Pellow, S., Br J Pharmacol 86: 729–735, 1985). Mice were allocated to different test groups randomly, and tested in an randomized order of drug treatment between 8 A.M. and 12 P.M. in a room lit by dim light. After each trial, the floor of the apparatus was wiped and dried thoroughly with tissue to remove traces of the previous path. An increase in the number and time spent head-dipping in this test are indicative of a greater exploratory activity. Conversely, a decrease in any of these parameters compared to controls is symptomatic of sedated behavior (Nolan, N. A., and Parkes, M. W., Psychopharmacol 29: 277–288, 1973; File, S. E., and Wardill, A. G., Psychopharmacol 44: 53–59, 1975; File, S. E., and Pellow, S., Psychopharmacol 88:1–11, 1986).

Male ICR mice [3] = test: Elevated plus-maze; assay type: in vivo; details: for Total (total number of arm entries): 5 minute test
Experimental: as §1, §2
The elevated plus-maze was made of wood and consisted of two open arms (25×5 cm) and two opposite arms enclosed by 20 cm high walls. The arms extended from a central platform (5×5 cm). The plus-maze was elevated to a height of 40 cm. The maze was put inside a box 30×30×50 cm. […] The number of entries into and the time spent on the open and closed arms were counted. The total number of arm entries provided a measure of general activity, and anxiety reduces the number of such entries. At the end of the test, the number of entries into open arms was expressed as a percentage of the total number of arm entries. The time spent on the open arms was also expressed as a percentage of time spent on both the open and closed arms. Testing took place between 8 A.M. and 12 P.M. Mice were randomly allocated to different test groups, and tested in a randomized order of drug treatment in a room lit by dim light. After each trial, the floor of the apparatus was wiped and dried thoroughly with tissue to remove traces of the previous path.

Male ICR mice [4] = test: Horizontal wire test; assay type: in vivo; details: up to 30 mg/kg, 1 hour after oral administration, FIG. 5
Experimental: as §1, §2
Mice were lifted by the tail and allowed to grasp a horizontally strung wire (1 mm diameter, 15 cm long and placed 20 cm above the table) with their forepaws and released (Bonetti, E. P., et al., Psychopharmacol 78: 8–18, 1982). […] After two trials performed at 5 minute intervals, the test took place. A myorelaxant drug impairs the capacity of the mice to grasp the wire. Such muscle relaxation is commonly associated with sedation.

[5] = Acute lethal activity test; details: both sexes, ICR, mouse, in vivo; in mice
Experimental: as §1

[6] = test system: BZD-S of the GABAA-receptor; details: as variously reported; cited from earlier work
[7] = Acute, 1 hour before test, 3.75 mg/kg
[8] = Acute, 1 hour before test, 7.5 mg/kg
[9] = Acute, 1 hour before test, 15 mg/kg
[10] = Acute, 1 hour before test, 30 mg/kg
[11] = Chronic (5 days pretreatment), 3.75 mg/kg
[12] = Chronic (5 days pretreatment), 7.5 mg/kg
[13] = Chronic (5 days pretreatment), 15 mg/kg
[14] = Chronic (5 days pretreatment), 30 mg/kg
[15] = Acute, 1 hour before test, 1 mg/kg
[16] = Chronic (5 days pretreatment), 1 mg/kg

## COc1c(O)cc(O)c2c(=O)cc(-c3ccccc3)oc12 [wogonin]
Male ICR mice [1]; [7]
  Locomotor Activity Score: 189.44 ± 6.54
Male ICR mice [1]; [8]
  Locomotor Activity Score: 205.63 ± 13.11
Male ICR mice [1]; [9]
  Locomotor Activity Score: 207.38 ± 10.12
Male ICR mice [1]; [10]
  Locomotor Activity Score: 193.50 ± 6.39
Male ICR mice [1]; [11]
  Locomotor Activity Score: 149.75 ± 6.55
Male ICR mice [1]; [12]
  Locomotor Activity Score: 170.56 ± 12.00
Male ICR mice [1]; [13]
  Locomotor Activity Score: 172.75 ± 6.25
Male ICR mice [1]; [14]
  Locomotor Activity Score: 184.56 ± 7.88
Male ICR mice [1]; up to 30 mg/kg body weight, mice
  Sedative effects (change in motor activity): did not induce any sedative effects
Male ICR mice [2]; [7]
  Head-dip Number: 23.88 ± 1.08
  Head-dip Time: 27.00 ± 1.10
Male ICR mice [2]; [8]
  Head-dip Number: 31.06 ± 1.88
  Head-dip Time: 36.38 ± 1.93
Male ICR mice [2]; [9]
  Head-dip Number: 37.00 ± 1.94
  Head-dip Time: 42.25 ± 2.54
Male ICR mice [2]; [10]
  Head-dip Number: 42.75 ± 3.58
  Head-dip Time: 48.19 ± 3.92
Male ICR mice [2]; [11]
  Head-dip Number: 23.88 ± 1.86
  Head-dip Time: 26.88 ± 1.95
Male ICR mice [2]; [12]
  Head-dip Number: 32.31 ± 1.80
  Head-dip Time: 38.00 ± 0.79
Male ICR mice [2]; [13]
  Head-dip Number: 32.81 ± 2.27
  Head-dip Time: 37.38 ± 2.32
Male ICR mice [2]; [14]
  Head-dip Number: 30.13 ± 1.59
  Head-dip Time: 35.88 ± 1.81
Male ICR mice [2]; up to 30 mg/kg, mice
  Sedative effect (holeboard): did not induce a significant sedative effect
Male ICR mice [3]; 7.5, 15 or 30 mg/kg, oral, mice, FIG. 3
  Anxiolytic effects: open arm entries (acute), % time spent in open arms (acute), % open arm entries (chronic): significant anxiolytic effects
Male ICR mice [3]; Acute, oral, 1 hour before test, 3.75 mg/kg
  Total (total number of arm entries): 34.56 ± 0.97
Male ICR mice [3]; Acute, oral, 1 hour before test, 7.5 mg/kg
  Total (total number of arm entries): 45.56 ± 1.71
Male ICR mice [3]; Acute, oral, 1 hour before test, 15 mg/kg
  Total (total number of arm entries): 43.50 ± 1.90
Male ICR mice [3]; Acute, oral, 1 hour before test, 30 mg/kg
  Total (total number of arm entries): 47.00 ± 1.93
Male ICR mice [3]; Chronic (5 days pretreatment), oral, 3.75 mg/kg
  Total (total number of arm entries): 27.56 ± 1.90
Male ICR mice [3]; Chronic (5 days pretreatment), oral, 7.5 mg/kg
  Total (total number of arm entries): 31.75 ± 2.07
Male ICR mice [3]; Chronic (5 days pretreatment), oral, 15 mg/kg
  Total (total number of arm entries): 31.56 ± 2.13
Male ICR mice [3]; Chronic (5 days pretreatment), oral, 30 mg/kg
  Total (total number of arm entries): 31.31 ± 1.77
Male ICR mice [3]; Flumazenil Ro15-1788 2.5 mg/kg IP 15 minutes before testing, mice, FIG. 4
  Anxiolytic effect of wogonin after treatment with Flumazenil Ro15-1788: completely abolished
Male ICR mice [4]
  Myorelaxant effects: devoid of myorelaxant effects
[5]
  LD50: ~4000 mg/kg
[6]
  Binding affinity to the BZD-S of the GABAA-receptor: weak or moderate

## CN1C(=O)CN=C(c2ccccc2)c2cc(Cl)ccc21 [diazepam, reference compound]
Male ICR mice [1]; [15]
  Locomotor Activity Score: 225.29 ± 15.80
Male ICR mice [1]; [16]
  Locomotor Activity Score: 195.25 ± 13.03
Male ICR mice [2]; [15]
  Head-dip Number: 28.88 ± 2.16
  Head-dip Time: 37.00 ± 0.79
Male ICR mice [2]; [16]
  Head-dip Number: 31.94 ± 3.57
  Head-dip Time: 36.50 ± 3.59
Male ICR mice [3]; Acute, oral, 1 hour before test, 1 mg/kg
  Total (total number of arm entries): 45.13 ± 2.31
Male ICR mice [3]; Chronic (5 days pretreatment), oral, 1 mg/kg
  Total (total number of arm entries): 29.38 ± 2.67
